Non-standard residues stand in square brackets, D forms with d. Residues, ends and D or L forms follow the SMILES beside them. No end group written: not given here.
How the values were obtained:
KB cells [1] = assay: In vitro transfection (luciferase expression); assay type: cell-based; conditions: 1 μg DNA/well
Procedure: The following day, the media was removed and replaced with 500 μl of fresh serum-free media.

MDA-MB-231 cells = assay: Competition assays of ligand-mediated transfection; assay type: cell-based, human; conditions: 0.1 μg DNA/well; for effect of 1000-fold excess of free peptide on DSPE-PEG5K-RGD mediated transfection: 10 mol % DSPE-PEG5K-RGD LPD
Procedure: Three competitions assays were performed using MDA-MB-231 cells in order to assess specificity of transfection-mediated-[…] (SEQ ID NO:10) or DSPE-PEG5K-RGD (SEQ ID NO:11). Transfections were performed as described above except that the culture media was supplemented with free LHRH or RGD peptides, or antibody against the LHRH or the integrin receptor as competition agents. 10 mol % pegylated lipid or targeting factor-pegylated lipid conjugate was used for each experiment.
The first competition assay was performed using 1 μg DNA/well. This DNA concentration required a high concentration of free LHRH to achieve a 100 fold excess of free LHRH which was toxic for the cells. Similarly, with the RGD formulation, this DNA concentration required a high concentration of free RGD in order to achieve 100 fold excess of free RGD (3.25 μl of dansyl-labeled RGD ((Integrated Biomolecule Corporation, Tucson, Ariz.) from a solution at 5 mg/ml in H2O) which was toxic for the cells.
In order to decrease LHRH associated toxicity, a second competition assay was performed using 0.1 μg DNA/well (FIGS. 6A and 6B). 0.1 μg DNA/well corresponds to 862.62 ng DSPE-PEG5K-LHRH (SEQ ID NO:10) or 168.6 ng of LHRH/well using a 12 nmol:1 μg lipid:DNA ratio and 10 mol % DSPE-PEG5K-LHRH (SEQ ID NO:10) in the total lipids in the formulation. Transfections were performed as described above. The second competition assay was performed using 17.5 μg/well (5 μl) of anti-LHRH receptor F1G4, and 15 μg/well (50 μl) of anti-LHRH receptor A9E4 from Biogenesis (Kingston, N.H.). The appropriate isotype match antibody (17.5 μg/well), anti-CD3 IgG1K (Pharmingen, San Diego, Calif.), was used as a control. Additionally, a 100-fold and 1000 fold excess of LHRH was tested as a competition agent: the media was supplemented with 6.5 μl or 65 μl of a stock solution of 2.5 mg/ml of [D-Trp]-LHRH from Sigma (St. Louis, Mo.). Moreover, in this particular experiment, 2 anti-LHRH receptor polyclonal serums were tested: 5 μl/well of a rabbit serum anti-LHRH receptor (Biogenesis, Kingston, N.H.) and 50 μl/well sheep serum anti-LHRH receptor (Biogenesis, Kingston, N.H.). The corresponding volumes of control serum were used as an isotype control. Control serums were purchased from Sigma (St. Louis, Mo.).
LPDs were also directly incubated with an anti-LHRH antibody or an isotype control (Anti-IgG) antibody before addition of LPDs to cells in order to block the LHRH molecule on the LPD surface (data not shown). Briefly, 6.67 μl of 1/10 diluted DSPE-PEG5K-LHRH LPDs at 150 μg DNA/ml were mixed with 50 μl of mouse anti-LHRH antibody or control (Dako Corporation, Carpinteria, Calif.) and incubated for 1 h at room temperature prior to transfection as described above. […]

KB cells [2] = assay: Effect of lysomotrophic agent on PPAA-mediated transfection; assay type: cell-based; conditions: added half an hour prior to LPD
Procedure: Lysomotrophic agent, either chloroquine (an anti-malarial drug, weak base protonated in endosome) or bafilomycin A (a specific ATPase inhibitor which reduces the amount of protons entering the endosome), capable of preventing endosomal acidification, were added in varying amounts to the transfection mixture half and hour prior to LPD addition to the cells.

HepG2 cells = assay: In vitro transfection (luciferase expression); assay type: cell-based; conditions: for transfection with DC-Chol:DOPE LPDs containing ligand: HepG2 (ASGPR bearing), 100 μM ligand, 1 μg DNA
Procedure: 16-24 hr prior to transfection, 5×10^4 cells (MDA-MB-231, LL/2 or HepG-2 (ATCC, Manassas, Va.)) in 500 μl/well of appropriate media (ATCC catalog describes appropriate media for each cell type) containing 10% FBS were seeded in a 48 well plate (Costar, Coming, N.Y.) and incubated overnight at 37° C. in 5% or 10% CO2. The following day, the media was removed and replaced with 500 μl of fresh serum-free media. […] After transfection, luciferase activity was assayed as described (Promega Luciferase Assay Kit, Cat. No. E1501, Madison, Wis.). Briefly, the cell culture media was removed and replaced by fresh media containing 10% FBS, and the cells were incubated at 37° C. in 5% or 10% CO2 for a further 48 h. Each well was washed with 1 ml PBS 0.095 M pH7.4 (Biowhittaker, Walkersville, Md.) and suspended in 200 μl of 1× luciferase reporter buffer (RLB) (Promega, Madison, Wis.). The cells were then subject to 3 cycles of freeze/thaw at −70° C./37° C., respectively. Cells were harvested and spun for 10 min at 14,000 rpm. 20 μl of the supernatant was assayed for luciferase activity by addition of 100 μl of luciferase substrate (Promega, Madison, Wis.), followed by a 10 sec incubation time at room temperature before luminescence relative units were measured using a Berthold (Aliquippa, Pa. autolumat B953 luminometer. The total protein concentration per sample was determined using a commercial kit of Coomassie plus dye (Pierce, Rockford, Ill.).
(§1) For in vitro cell testing of the galactosylated peptides, the following cell lines were used: HepG2 (ATCC, Manassas, Va.): Hepatocarcinoma cell line expressing the asialyglycoprotein (ASGP) receptor. […] These two cell lines were tested for the presence of the ASGP receptor by westen blotting with an anti-asialoglycoprotein receptor antibody from Calbiochem (Nottingham, UK). This confirmed the presence of the receptor in HepG2 cells and the absence of the receptor from Hep-SK1 cells (data not shown).
(§2) The formulations were incubated with the cells for 4 h, at which point the formulations were aspirated and fresh serum containing complete medium was added to the cells. Cells were harvested 48 h post transfection and were assayed for total cell protein expression and luciferase reporter gene expression. […] Thus, multifunctional targeting factors such as galactose-Elan094 (SEQ ID NO:6) can increase transfection activity over a single fimctional targeting factor.

HepSK1 cells = assay: In vitro transfection (luciferase expression); assay type: cell-based, human; conditions: Hep-SK 1 (non-ASGPR), 100 μM ligand, 1 μg DNA
Procedure: as §1, §2
In vitro cell transfections were carried out as described supra in a number of cell types. […] The results for two different cell types, a human liver cell line (HepSK1) and a human breast cell line (MDA-MB-231), are shown in Tables 7 and 8.

[3] = MTLP peptide stability in serum over time (HPLC-UV); assay type: in vitro ADME, mouse; conditions: 37° C.; for stability in mouse serum (recovery by HPLC-UV): 1 mg/mL peptide + equal volume mouse serum, 10-120 min
Procedure: The MTLP peptide solutions were prepared at 1 mg/mL and 20 μL aliquots placed in tubes. To one set of tubes an equal volume of mouse serum was added and to a second set 0.9% saline solution was added as negative a control. The tubes were incubated at 37° C. A control and a sample tube were removed at various timepoints (10, 30, 60 and 120 min) and any reaction quenched using 70:30 acetonitrile:water (160 μL). Each quenched sample was then analysed by HPLC-UV at 220 nm with a C18 column (5 μm, 300Å, 250×4.6 mm id) for 45 minutes. Mobile phase A was 10:90 acetonitrile: 0.1% trifluoroacetic acid in water and mobile phase B was 0.1% trifluoroacetic acid in acetonitrile.

[4] = target: LHRH receptor on MDA-MB-231, SKOV3-IP1 and H-69 cells (human) (UniProt P30968); assay: cell-based or functional assay
LHRH receptor on MDA-MB-231, SKOV3-IP1 and H-69 cells (human), sequence (P30968 whole entry): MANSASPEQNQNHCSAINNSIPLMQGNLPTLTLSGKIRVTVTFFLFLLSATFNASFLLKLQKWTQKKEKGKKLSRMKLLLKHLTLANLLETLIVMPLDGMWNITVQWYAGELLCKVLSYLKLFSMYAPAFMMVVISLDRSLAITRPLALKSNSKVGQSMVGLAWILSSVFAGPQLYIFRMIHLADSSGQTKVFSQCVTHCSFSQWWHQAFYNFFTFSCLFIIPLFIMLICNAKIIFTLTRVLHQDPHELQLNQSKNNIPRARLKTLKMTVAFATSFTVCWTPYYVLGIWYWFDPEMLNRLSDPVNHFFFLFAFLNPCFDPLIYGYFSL

RRRRRRRH
increase in transfection activity when formulated with CHEMS:DOPE compared to peptide-compacted DNA alone (KB cells [1]): 2 fold

GRGDNP
effect of 1000-fold excess of free peptide on DSPE-PEG5K-RGD mediated transfection (MDA-MB-231 cells): inhibition of transfection activity

CO/C1=C\C(C)=C\[C@@H](C)[C@@H](O)[C@@H](C)C/C(C)=C/C=C/[C@H](OC)[C@@H]([C@@H](C)[C@@H](O)[C@H](C)[C@@]2(O)C[C@@H](O)[C@H](C)[C@@H](C(C)C)O2)OC1=O [Bafilomycin A, bafilomycin A]
effect on PPAA-mediated transfection (KB cells [2]; 10 ng/well): appeard to block PPAA-mediated transfection

CCN(CC)CCCC(C)Nc1ccnc2cc(Cl)ccc12 (stereo not shown) [Chloroquine, chloroquine]
effect on PPAA-mediated transfection (KB cells [2]; 1600 nM): blocked PPAA-mediated transfection

LHRH: free LHRH used as competition agent, [D-Trp]-LHRH from Sigma (QHWSYGLRPG; not fully specified (residue 1, C-terminus); ends and bridges not checked; also: D-Trp, position not given here)
effect of 1000-fold excess of free LHRH on DSPE-PEG5K-LHRH mediated transfection (MDA-MB-231 cells; 10 mol % DSPE-PEG5K-LHRH LPD): clear inhibition of transfection activity

des-Pro-KKAAAVLLPVLLAAS-Galactose [Elan094G]
dose giving optimal transfection (HepG2 cells; DC-chol:DOPE LPDs, dose titration (FIG. 14)): 50 µM | transfection with DC-Chol:DOPE LPDs containing ligand (HepG2 cells): Increased transfection | transfection with DC-Chol:DOPE LPDs containing ligand (HepSK1 cells): no increase in transfection

GRGESP
effect of 1000-fold excess of free peptide on DSPE-PEG5K-RGD mediated transfection (MDA-MB-231 cells): did not inhibit transfection activity

GRGDSP
effect of 1000-fold excess of free peptide on DSPE-PEG5K-RGD mediated transfection (MDA-MB-231 cells): inhibition of transfection activity

H-KKKAAAVLLPVLLAAP [ZElan094]
stability in mouse serum (recovery by HPLC-UV) [3]: degrades in mouse serum over 2 hr | ligand still detectable at 30 minutes following incubation in mouse serum [3]: up to 60% | start of degradation in mouse serum [3]: > 10 min

[D-Trp]-LHRH from Sigma (from UniProt P01148 24-33) (peptide)
luciferase expression in MDA-MB-231 cells after transfection with LPDs containing 10 mol % DSPE-PEG5K-LHRH, free LHRH in the medium as competition agent [4]: 1000 fold

H2N-KKKAAAVLLPVLLAAPREDL (H-KKKAAAVLLPVLLAAPREDL) [ZElan094R]
transfection with DC-Chol:DOPE LPDs containing ligand (HepG2 cells): Increased transfection | transfection with DC-Chol:DOPE LPDs containing ligand (HepSK1 cells): no increase in transfection

CC(C)C[C@@H](NC(=O)[C@@H](CC(C)C)NC(=O)[C@H](NC(=O)[C@H]1CCCN1C(=O)[C@@H](CC(C)C)NC(=O)[C@@H](CC(C)C)NC(=O)[C@H](NC(=O)[C@@H](C)NC(=O)[C@@H](C)NC(=O)[C@@H](CCCCN)NC(=O)[C@@H](CCCCN)NC(=O)[C@H](N)CCCCN)C(C)C)C(C)C)C(=O)N[C@H](C)C(=O)N[C@H](C)C(=O)N1CCC[C@@H]1C(=O)O [ZElan207, H2N-kkkaavllpvllaap] (H-[dK][dK][dK][dA][dA][dV][dL][dL][dP][dV][dL][dL][dA][dA][dP]-OH; C-terminus assumed)
stability in mouse serum (recovery by HPLC-UV) [3]: stable in mouse serum up to 2 h

S(Galactose)KKAAAVLLPVLLAAP [GElan094]
transfection with DC-Chol:DOPE LPDs containing ligand (HepG2 cells): Increased transfection | transfection with DC-Chol:DOPE LPDs containing ligand (HepSK1 cells): no increase in transfection

Source: patent publication US20050025821A1, “Lipid-comprising drug delivery complexes and methods for their production” (priority 2001, published 2005)
